Measurements taken from patent publication US6841169B2, “Stabilizer for pharmacons” (Rijksuniversiteit Groningen, priority 2001, dated 2005).

Columns and labels:
[1] = test system: alkaline phosphatase; settings: for Activity alkaline phosphatase after freeze-drying and 6 days at 0% RH and 60° C.: alkaline phosphatase to stabilizer 1 to 9, average of 4 independent experiments; for Activity alkaline phosphatase directly after freeze drying: alkaline phosphatase to stabilizer 1 to 9 by weight, average of 2 independent experiments
Procedure: Alkaline phosphatase with and without stabilizer was dissolved in a 0.05 M 2-amino-2-methyl-1,3-propanediol solution in water, pH 9.8. The concentration of alkaline phosphatase was 2.5 mg/mL in all cases. […] Trehalose and glucose were used as positive and negative control, respectively. The weight ratio of alkaline phosphatase to stabilizer was 1 to 9 in all cases. Of the solutions, 2 mL were transferred to glass sample vessels of a diameter of about 2 cm. The sample vessels were transferred to liquid nitrogen. After the solution had frozen completely, the sample vessels were transferred to a Christ freeze-drier, model Alpha 2-4, at a plate temperature of −30° C., followed by freeze-drying at a condenser temperature of −53° C. and a pressure of 0.220 mbar for 18 hours. Then, during 6 hours, the plate temperature and the pressure were gradually raised to 20° C. and 0.520 mbar, respectively. Thereafter the freeze-drying process was continued for 20 more hours.
Two series of experiments were carried out. In the first series, the samples were left to stand for 6 days at 0% relative humidity (RH) and 60° C., whereafter the activity of the protein was determined. In the second series of experiments, the samples were left to stand in an exsiccator above silica gel (0% RH) or in controlled-climate cabinets (45% and 60% RH) at 20° C. At different times, the activity of the protein was determined.
The activity of alkaline phosphatase was determined as follows. The freeze-dried samples were reconstituted with water. To 50 μl of the solution obtained, there were added 905 μL of a 0.05 M 2-amino-2-methyl-1,3-propanediol solution in water, pH 9.8, and 20 μL of a 100 mM MgCl2 solution in water. Next, 50 μL of a freshly prepared solution of 10 mg phosphatase substrate (para-nitrophenyl phosphate) per mL water were added. The mixture was vortexed and then incubated at 37° C. After 30 minutes, the reaction was stopped by addition of 5.0 mL of a 0.1 N solution of NaOH in water. The extinction of the solution obtained was measured at 405 nm. A calibration line was made using freshly prepared solutions of alkaline phosphatase in 0.05 M 2-amino-2-methyl-1,3-propanediol in water, pH 9.8, of known concentrations.

[2] = Freeze-drying at a sample temperature of −16° C. (cake formation); type: physicochemical; settings: sample temperature −16° C.
Procedure: This last was tested in experiments with trehalose and inulin. Freeze-drying was done at a sample temperature of −16° C. […] Accordingly, inulin can be freeze-dried under less stringent conditions.

[3] = from scientific publications; cited from earlier work
[4] = Storage of sugar glasses at 20° C. at raised relative air humidity (deliquescence); type: physicochemical; settings: 45% relative air humidity
Text: In practice, a sugar glass will never be completely anhydrous. This is for instance the consequence of uptake of water from the air. […] The extent of water uptake depends on the hygroscopicity of the material and of the relative degree of air humidity.

## O=C[C@H](O)[C@@H](O)[C@H](O)[C@H](O)CO [Glucose]
[1]
  Activity alkaline phosphatase after freeze-drying and 6 days at 0% RH and 60° C.: 0.8 ± 4.5%
  Activity alkaline phosphatase directly after freeze drying: 110.3 ± 10.6%
[1]; freeze-dried samples, 4 weeks, 45% RH, 20° C.
  Activity of the protein after 4 weeks at 45% RH (in words): substantial decrease of the activity
[1]; freeze-dried samples, 4 weeks, 45% RH, 20° C., FIG. II
  Activity of alkaline phosphatase after 4 weeks at 45% RH: 57.9±3.1%
[1]; freeze-dried samples, 4 weeks, 60% RH, 20° C.
  Activity of the protein after 4 weeks at 60% RH (in words): substantial decrease of the activity
[1]; freeze-dried samples, 4 weeks, 60% RH, 20° C., FIG. III
  Activity of alkaline phosphatase after four weeks at 60% RH: 46.3±16.1%
[1]; freeze-dried samples
  Activity of the protein after 6 days of storage at 0% RH and 60° C. (in words): gone completely

## OC[C@H]1O[C@H](O[C@H]2O[C@H](CO)[C@@H](O)[C@H](O)[C@H]2O)[C@H](O)[C@@H](O)[C@@H]1O [Trehalose]
[2]
  Cake obtained on freeze-drying: collapsed cake
[3]
  Tg (glass transition temperature): ~120 °C
[4]
  Behaviour of glass exposed to relative air humidity of 45%: first deliquesced (that is, the Tg falls below 20° C.) and then crystallized
[1]
  Activity alkaline phosphatase after freeze-drying and 6 days at 0% RH and 60° C.: −1.4 ± 2.8%
  Activity alkaline phosphatase directly after freeze drying: 95.9 ± 11.5%
[1]; freeze-dried samples
  Activity of the protein after 6 days of storage at 0% RH and 60° C. (in words): gone completely
